≈ marks a conversion by molar mass, not a printed value. Calls of active or inactive are those of the source. The calls are words filed in the database; no cut-off is given here.
Experiments:
[1] = system: Botrytis cinerea; assay: Antifungal activity against Botryotinia fuckeliana in Cucumber seedlings assessed as reduction of gray mold diseases compound spraying was performed 3 hr prior to inoculation by preventive effect assay; format: functional, organism-based
[2] = system: Botrytis cinerea; assay: Antifungal activity against Botryotinia fuckeliana in Kidney bean assessed as Kidney bean gray mold diseased pods in field trials at 500 ug/ml 3 applications at 9 days intervals (reference value: 21%); format: functional
[3] = system: Botrytis cinerea; assay: Antifungal activity against Botryotinia fuckeliana in Eggplant seedlings assessed as Eggplant gray mold diseased flowers and fruits in field trials at 200 ug/ml 3 applications at 7 days intervals (reference value: 52.7%); format: functional
[4] = system: Botrytis cinerea; assay: Antifungal activity against Botryotinia fuckeliana in Eggplant seedlings assessed as Eggplant gray mold diseased flowers and fruits in field trials at 500 ug/ml 3 applications at 7 days intervals (reference value: 52.7%); format: functional
[5] = system: Botrytis cinerea; assay: Antifungal activity against Botryotinia fuckeliana in Kidney bean assessed as Kidney bean gray mold diseased pods in field trials at 200 ug/ml 3 applications at 9 days intervals (reference value: 21%); format: functional
[6] = system: Botrytis cinerea; assay: Antifungal activity against Botryotinia fuckeliana in Kidney bean assessed as Kidney bean gray mold diseased pods in field trials at 100 ug/ml 3 applications at 9 days intervals (reference value: 21%); format: functional
[7] = system: Botrytis cinerea; assay: Antifungal activity against Botryotinia fuckeliana in Eggplant seedlings assessed as Eggplant gray mold diseased flowers and fruits in field trials at 100 ug/ml 3 applications at 7 days intervals (reference value: 52.7%); format: functional
[8] = system: Cucumis sativus; assay: Translaminar activity against kidney bean gray mold assessed as drug transport in Phaseolus vulgaris (kidney bean) from adaxial to abaxial at 100 to 200 ug/ml measured after 3 days; format: ADME, organism-based; conditions: in vivo, 72 h
[9] = system: Botrytis cinerea; assay: Antifungal activity against Botryotinia fuckeliana in Cucumber seedlings cotyledon stage assessed as suppression of gray mold diseases measured after 7 days by rain fastness activity assay; format: functional, organism-based
[10] = system: Botrytis cinerea; assay: Antifungal activity against Botryotinia fuckeliana in Cucumber seedlings assessed as reduction of gray mold diseases; format: functional, organism-based
[11] = system: Botrytis cinerea; assay: Antifungal activity against Botryotinia fuckeliana in Cucumber seedlings assessed as reduction gray mold diseases at 3 ug/ml compound spraying was performed 3 hr prior to inoculation by preventive effect assay; format: functional; design: scale not given: the % may be the effect or the level left
[12] = system: Botrytis cinerea; assay: Antifungal activity against Botryotinia fuckeliana in Cucumber seedlings assessed as reduction of gray mold diseases at 3 ug/ml compound spraying was performed 48 hr after inoculation by lesion development inhibitory assay; format: functional; design: scale not given: the % may be the effect or the level left
[13] = system: Botrytis cinerea; assay: Antifungal activity against Botryotinia fuckeliana in Cucumber seedlings assessed as reduction of gray mold diseases at 3 ug/ml compound spraying was performed 24 hr after inoculation by curative effect assay; format: functional; design: scale not given: the % may be the effect or the level left

SMILES: O=C(Nc1ccccc1-c1ccc(Cl)cc1)c1cccnc1Cl [BOSCALID]
- EC50 [1]: 0.8 µg/mL (≈ 2.33 µM)

SMILES: CC1(C(=O)Nc2ccc(O)c(Cl)c2Cl)CCCCC1 [FENHEXAMID]
- EC50 [1]: 2.13 µg/mL (≈ 7.05 µM)

SMILES: O=[N+]([O-])c1cc(C(F)(F)F)c(Cl)c([N+](=O)[O-])c1Nc1ncc(C(F)(F)F)cc1Cl [FLUAZINAM]
- Activity [2]: 7.8%

SMILES: N#Cc1c[nH]cc1-c1cccc2c1OC(F)(F)O2 [FLUDIOXONIL]
- Activity [3]: 16.8%

SMILES: CC12CC1(C)C(=O)N(c1cc(Cl)cc(Cl)c1)C2=O (stereo not drawn) [PROCYMIDONE]
- Activity [2]: 4.6%
- Activity [4]: 12.3%

SMILES: COC(=O)NCc1cc(/C(C)=N/OCc2cccc(C)n2)ccc1Cl [Pyribencarb]
- Activity [5]: 3.7%
- Activity [6]: 5.3%
- Activity [3]: 3.4%
- Activity [7]: 9.8%
- Drug transport [8]: Active
- inhibition [9]: Active
- EC50 [10]: 0.006 µg/mL (≈ 0.0166 µM)
- MIC [10]: 0.1 µg/mL (≈ 0.276 µM)
- Activity [11]: 72.1%
- Activity [12]: 88.5%
- EC50 [1]: 0.55 µg/mL (≈ 1.52 µM)
- Activity [13]: 80.4%

From ChEMBL document CHEMBL3045919, “Disease-controlling effect of a novel fungicide pyribencarb against Botrytis cinerea” (J Pestic Sci, 2010)
